Reference: patent US8697385B1, “Protein controlling synthesis of collagen and associated methods” (Florida State University Research Foundation, Inc., priority 2009, dated 2014)

System: myosin IIB
Assay: Western blot analysis of total nonmuscle myosin IIB level
Format: cell-based, human
Settings: Western blot; ML-7 40 μM 16 h
Description: ML-7, blebbistatin, cytochalasin B, puromycin, and cycloheximide were purchased from Sigma. ML-7 was used at 40 μM, blebbistatin was used at 100 μM, and cytochalasin B was used at 20 μM. Cells were incubated with the drugs for 16 h before analysis. Puromycin (200 μg/ml) and cycloheximide (100 μg/ml) were added to the cells for 2 h. Human lung fibroblasts have been described previously.16 Scleroderma fibroblasts were purchased from the European Collection of Cell Cultures (cell line BM0070) and derived from the skin of a scleroderma patient. MEFs were derived from knock-in mice in which the 5′SL of the collagen α1(I) gene has been mutated (Parsons et al., submitted). Several independent cell isolates were used throughout the study. All cells were cultured in Dulbecco's modified Eagle's medium supplemented with 10% fetal bovine serum for up to 10 passages. […] [^32P]dCTP was included in the PCR step to label the products, which were resolved on sequencing gels, as described previously.^8,31,49,50 When RNA from polysomal fractions was analyzed, an equal aliquot of each fraction was used. […]
Protein concentration was estimated by the Bradford assay, with bovine serum albumin as standard.^51 Western blot analyses of cellular proteins were performed using 50 μg of protein. […] The medium was collected, and an aliquot was analyzed directly by Western blot analysis. […]

O=S(=O)(c1cccc2c(I)cccc12)N1CCCNCC1 [ML-7]
total level of myosin IIB: remained unchanged
